Data as given in ChEMBL document CHEMBL4396916, “Novel potent substituted 4-amino-2-thiopyrimidines as dual VEGFR-2 and BRAF kinase inhibitors” (Eur J Med Chem, 2019).

Columns and labels:
RPMI-8226 = assay: Growth inhibition of human RPMI8226 cells at 10 uM incubated for 48 hrs by sulforhodamine B assay relative to control; format: functional; conditions: RPMI-8226, 48 h, read-out: GI
DU-145 = assay: Growth inhibition of human DU145 cells at 10 uM incubated for 48 hrs by sulforhodamine B assay relative to control; format: functional; conditions: DU-145, 48 h, read-out: GI
K562 = assay: Growth inhibition of human K562 cells at 10 uM incubated for 48 hrs by sulforhodamine B assay relative to control; format: functional; conditions: K562, 48 h, read-out: GI
BT-549 = assay: Growth inhibition of human BT549 cells at 10 uM incubated for 48 hrs by sulforhodamine B assay relative to control; format: functional; conditions: BT-549, 48 h, read-out: GI
MDA-MB-231 = assay: Growth inhibition of human MDA-MB-231 cells at 10 uM incubated for 48 hrs by sulforhodamine B assay relative to control; format: functional; conditions: MDA-MB-231, 48 h, read-out: GI
[1] = molecular target: Serine/threonine-protein kinase B-raf (Homo sapiens, UniProt P15056); assay: Inhibition of human wild type BRAF by Kinase-Glo luminescence assay
T47D [2] = assay: Growth inhibition of human T47D cells at 10 uM incubated for 48 hrs by sulforhodamine B assay relative to control; format: functional; conditions: read-out: GI
SF-539 = assay: Growth inhibition of human SF539 cells at 10 uM incubated for 48 hrs by sulforhodamine B assay relative to control; format: functional; conditions: SF-539, 48 h, read-out: GI
T47D [3] = assay: Cytotoxicity against human T47D cells expressing wild type BRAF measured after 48 hrs by sulforhodamine B assay; format: functional, cell-based
MDA-MB-468 = assay: Growth inhibition of human MDA-MB-468 cells at 10 uM incubated for 48 hrs by sulforhodamine B assay relative to control; format: functional; conditions: MDA-MB-468, 48 h, read-out: GI
HCT-15 = assay: Growth inhibition of human HCT15 cells at 10 uM incubated for 48 hrs by sulforhodamine B assay relative to control; format: functional; conditions: HCT-15, 48 h, read-out: GI
SR = assay: Growth inhibition of human SR cells at 10 uM incubated for 48 hrs by sulforhodamine B assay relative to control; format: functional; conditions: read-out: GI
SK-MEL-28 = assay: Growth inhibition of human SK-MEL-28 cells at 10 uM incubated for 48 hrs by sulforhodamine B assay relative to control; format: functional; conditions: SK-MEL-28, 48 h, read-out: GI
ACHN = assay: Growth inhibition of human ACHN cells at 10 uM incubated for 48 hrs by sulforhodamine B assay relative to control; format: functional; conditions: read-out: GI
[4] = molecular target: Vascular endothelial growth factor receptor 2 (Homo sapiens, UniProt P35968); assay: Inhibition of human N-terminal GST tagged VEGFR-2 expressed in baculovirus infected Sf9 cells using poly (Glu,Tyr) 4:1 as substrate in presence of ATP by Kinase-Glo luminescence assay
UACC-62 = assay: Growth inhibition of human UACC62 cells at 10 uM incubated for 48 hrs by sulforhodamine B assay relative to control; format: functional; conditions: UACC-62, 48 h, read-out: GI
SF-295 = assay: Growth inhibition of human SF295 cells at 10 uM incubated for 48 hrs by sulforhodamine B assay relative to control; format: functional; conditions: SF-295, 48 h, read-out: GI
LOX IMVI = assay: Growth inhibition of human LOXIMVI cells at 10 uM incubated for 48 hrs by sulforhodamine B assay relative to control; format: functional; conditions: read-out: GI
MOLT-4 = assay: Growth inhibition of human MOLT4 cells at 10 uM incubated for 48 hrs by sulforhodamine B assay relative to control; format: functional; conditions: MOLT-4, 48 h, read-out: GI
IGROV-1 = assay: Growth inhibition of human IGROV1 cells at 10 uM incubated for 48 hrs by sulforhodamine B assay relative to control; format: functional; conditions: IGROV-1, 48 h, read-out: GI
MCF7 [5] = assay: Growth inhibition of human MCF7 cells at 10 uM incubated for 48 hrs by sulforhodamine B assay relative to control; format: functional; conditions: MCF7, 48 h, read-out: GI
NCI-H23 = assay: Growth inhibition of human NCI-H23 cells at 10 uM incubated for 48 hrs by sulforhodamine B assay relative to control; format: functional; conditions: NCI-H23, 48 h, read-out: GI
NCI-H522 = assay: Growth inhibition of human NCI-H522 cells at 10 uM incubated for 48 hrs by sulforhodamine B assay relative to control; format: functional; conditions: NCI-H522, 48 h, read-out: GI
MCF7 [6] = assay: Inhibition of VEGFR2 level in human MCF7 cells at 10 uM measured after 48 hrs by ELISA relative to control; format: functional; conditions: MCF7, 48 h
M14 = assay: Growth inhibition of human M14 cells at 10 uM incubated for 48 hrs by sulforhodamine B assay relative to control; format: functional; conditions: M14, 48 h, read-out: GI
A549 = assay: Growth inhibition of human A549/ATCC cells at 10 uM incubated for 48 hrs by sulforhodamine B assay relative to control; format: functional; conditions: A549, 48 h, read-out: GI
A498 = assay: Growth inhibition of human A498 cells at 10 uM incubated for 48 hrs by sulforhodamine B assay relative to control; format: functional; conditions: A498, 48 h, read-out: GI
SK-MEL-5 = assay: Growth inhibition of human SK-MEL-5 cells at 10 uM incubated for 48 hrs by sulforhodamine B assay relative to control; format: functional; conditions: SK-MEL-5, 48 h, read-out: GI
HT-29 = assay: Growth inhibition of human HT-29 cells at 10 uM incubated for 48 hrs by sulforhodamine B assay relative to control; format: functional; conditions: HT-29, 48 h, read-out: GI
NCI/ADR-RES = assay: Growth inhibition of human NCI/ADR-RES cells at 10 uM incubated for 48 hrs by sulforhodamine B assay relative to control; format: functional; conditions: read-out: GI
CCRF-CEM = assay: Growth inhibition of human CCRF-CEM cells at 10 uM incubated for 48 hrs by sulforhodamine B assay relative to control; format: functional; conditions: read-out: GI
EKVX = assay: Growth inhibition of human EKVX cells at 10 uM incubated for 48 hrs by sulforhodamine B assay relative to control; format: functional; conditions: read-out: GI
UACC-257 = assay: Growth inhibition of human UACC257 cells at 10 uM incubated for 48 hrs by sulforhodamine B assay relative to control; format: functional; conditions: UACC-257, 48 h, read-out: GI
MDA-MB-435 = assay: Growth inhibition of human MDA-MB-435 cells at 10 uM incubated for 48 hrs by sulforhodamine B assay relative to control; format: functional; conditions: MDA-MB-435, 48 h, read-out: GI
UO-31 = assay: Growth inhibition of human UO31 cells at 10 uM incubated for 48 hrs by sulforhodamine B assay relative to control; format: functional; conditions: UO-31, 48 h, read-out: GI
CAKI-1 = assay: Growth inhibition of human Caki1 cells at 10 uM incubated for 48 hrs by sulforhodamine B assay relative to control; format: functional; conditions: CAKI-1, 48 h, read-out: GI
SN12C = assay: Growth inhibition of human SN12C cells at 10 uM incubated for 48 hrs by sulforhodamine B assay relative to control; format: functional; conditions: read-out: GI
NCI-H226 = assay: Growth inhibition of human NCI-H226 cells at 10 uM incubated for 48 hrs by sulforhodamine B assay relative to control; format: functional; conditions: NCI-H226, 48 h, read-out: GI
KM12 = assay: Growth inhibition of human KM12 cells at 10 uM incubated for 48 hrs by sulforhodamine B assay relative to control; format: functional; conditions: KM12, 48 h, read-out: GI
OVCAR-4 = assay: Growth inhibition of human OVCAR4 cells at 10 uM incubated for 48 hrs by sulforhodamine B assay relative to control; format: functional; conditions: OVCAR-4, 48 h, read-out: GI
MCF7 [7] = assay: Cytotoxicity against human MCF7 cells expressing VEGFR2 and wild type BRAF measured after 48 hrs by sulforhodamine B assay; format: functional, cell-based; conditions: MCF7, 48 h
PC-3 = assay: Growth inhibition of human PC3 cells at 10 uM incubated for 48 hrs by sulforhodamine B assay relative to control; format: functional; conditions: PC-3, 48 h, read-out: GI
HCT-116 = assay: Growth inhibition of human HCT116 cells at 10 uM incubated for 48 hrs by sulforhodamine B assay relative to control; format: functional; conditions: HCT-116, 48 h, read-out: GI
NCI-H460 = assay: Growth inhibition of human NCI-H460 cells at 10 uM incubated for 48 hrs by sulforhodamine B assay relative to control; format: functional; conditions: NCI-H460, 48 h, read-out: GI
OVCAR-8 = assay: Growth inhibition of human OVCAR8 cells at 10 uM incubated for 48 hrs by sulforhodamine B assay relative to control; format: functional; conditions: OVCAR-8, 48 h, read-out: GI

Chain of Serine/threonine-protein kinase B-raf (P15056 whole entry): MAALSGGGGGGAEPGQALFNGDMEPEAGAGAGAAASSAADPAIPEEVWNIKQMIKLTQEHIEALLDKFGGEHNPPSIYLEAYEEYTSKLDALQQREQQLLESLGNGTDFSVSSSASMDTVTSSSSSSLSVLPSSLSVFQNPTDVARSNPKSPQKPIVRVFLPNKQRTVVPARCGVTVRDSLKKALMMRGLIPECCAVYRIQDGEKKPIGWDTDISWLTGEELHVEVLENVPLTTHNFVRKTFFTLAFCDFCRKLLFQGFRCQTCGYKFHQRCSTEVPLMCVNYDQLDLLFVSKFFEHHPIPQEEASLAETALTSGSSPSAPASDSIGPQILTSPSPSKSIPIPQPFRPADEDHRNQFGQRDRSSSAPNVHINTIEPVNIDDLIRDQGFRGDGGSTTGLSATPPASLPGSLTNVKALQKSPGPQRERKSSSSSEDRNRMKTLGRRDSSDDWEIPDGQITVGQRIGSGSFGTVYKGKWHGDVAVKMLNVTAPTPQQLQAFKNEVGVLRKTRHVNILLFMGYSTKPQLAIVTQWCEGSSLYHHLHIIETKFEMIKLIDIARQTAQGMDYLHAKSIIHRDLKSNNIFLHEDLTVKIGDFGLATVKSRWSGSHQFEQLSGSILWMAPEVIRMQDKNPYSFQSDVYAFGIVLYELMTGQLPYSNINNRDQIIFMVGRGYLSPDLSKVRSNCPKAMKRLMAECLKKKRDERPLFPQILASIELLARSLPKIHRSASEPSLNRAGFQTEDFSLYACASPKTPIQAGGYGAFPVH
Chain of Vascular endothelial growth factor receptor 2 (P35968 whole entry): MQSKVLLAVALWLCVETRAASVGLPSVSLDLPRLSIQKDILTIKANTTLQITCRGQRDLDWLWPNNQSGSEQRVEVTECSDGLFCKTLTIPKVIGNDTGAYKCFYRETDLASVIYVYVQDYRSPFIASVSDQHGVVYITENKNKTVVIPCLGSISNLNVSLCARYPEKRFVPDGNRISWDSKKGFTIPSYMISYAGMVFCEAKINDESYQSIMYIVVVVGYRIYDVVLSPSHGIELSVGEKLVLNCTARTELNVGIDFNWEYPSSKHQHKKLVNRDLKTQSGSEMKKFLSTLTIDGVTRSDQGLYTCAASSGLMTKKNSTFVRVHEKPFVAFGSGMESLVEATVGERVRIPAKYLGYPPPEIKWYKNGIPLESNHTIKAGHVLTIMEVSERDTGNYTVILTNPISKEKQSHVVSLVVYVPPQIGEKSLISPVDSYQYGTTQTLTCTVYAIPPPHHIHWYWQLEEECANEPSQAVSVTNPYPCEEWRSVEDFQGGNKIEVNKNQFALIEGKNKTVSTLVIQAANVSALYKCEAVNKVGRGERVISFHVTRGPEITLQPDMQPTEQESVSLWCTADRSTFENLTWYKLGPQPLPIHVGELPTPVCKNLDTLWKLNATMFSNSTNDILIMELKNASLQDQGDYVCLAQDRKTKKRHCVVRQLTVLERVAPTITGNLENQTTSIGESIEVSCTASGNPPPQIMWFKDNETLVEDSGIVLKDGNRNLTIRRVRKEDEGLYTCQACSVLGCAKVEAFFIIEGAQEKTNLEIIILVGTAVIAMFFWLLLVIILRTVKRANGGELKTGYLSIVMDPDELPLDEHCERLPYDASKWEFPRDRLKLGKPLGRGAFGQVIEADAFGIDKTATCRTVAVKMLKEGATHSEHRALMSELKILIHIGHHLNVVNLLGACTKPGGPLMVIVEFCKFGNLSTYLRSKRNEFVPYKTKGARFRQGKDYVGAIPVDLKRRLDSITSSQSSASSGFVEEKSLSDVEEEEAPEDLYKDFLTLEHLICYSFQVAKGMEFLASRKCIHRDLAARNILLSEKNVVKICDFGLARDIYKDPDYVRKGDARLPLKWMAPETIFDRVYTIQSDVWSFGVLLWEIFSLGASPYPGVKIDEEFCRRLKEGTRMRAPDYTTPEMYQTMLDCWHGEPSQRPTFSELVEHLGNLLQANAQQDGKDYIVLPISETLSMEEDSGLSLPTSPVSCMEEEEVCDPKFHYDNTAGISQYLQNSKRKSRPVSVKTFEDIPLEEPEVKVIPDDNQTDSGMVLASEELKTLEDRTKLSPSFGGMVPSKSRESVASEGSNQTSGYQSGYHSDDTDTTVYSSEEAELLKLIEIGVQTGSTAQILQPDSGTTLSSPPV

IC50 [1]: 0.22 µM
IC50 [4]: 0.41 µM
Compound: CCOC(=O)c1ccc(Nc2ccnc(SCC(=O)c3ccc([N+](=O)[O-])cc3)n2)cc1
inhibition of growth at 10 µM (RPMI-8226): 54%
inhibition of growth at 10 µM (DU-145): 16%
inhibition of growth at 10 µM (K562): 37%
inhibition of growth at 10 µM (BT-549): 28%
inhibition of growth at 10 µM (MDA-MB-231): 22%
inhibition of growth at 10 µM (T47D [2]): 60%
inhibition of growth at 10 µM (SF-539): 11%
IC50 (T47D [3]): 8.09 µM
inhibition of growth at 10 µM (MDA-MB-468): 51%
inhibition of growth at 10 µM (HCT-15): 13%
inhibition of growth at 10 µM (SR): 35%
inhibition of growth at 10 µM (SK-MEL-28): 11%
inhibition of growth at 10 µM (ACHN): 15%
inhibition of growth at 10 µM (UACC-62): 29%
inhibition of growth at 10 µM (SF-295): 28%
inhibition of growth at 10 µM (LOX IMVI): 10%
inhibition of growth at 10 µM (MOLT-4): 58%
inhibition of growth at 10 µM (IGROV-1): 19%
inhibition of growth at 10 µM (MCF7 [5]): 22%
inhibition of growth at 10 µM (NCI-H23): 13%
inhibition of growth at 10 µM (NCI-H522): 37%
inhibition at 10 µM (MCF7 [6]): 80%
inhibition of growth at 10 µM (M14): 16%
inhibition of growth at 10 µM (A549): 21%
inhibition of growth at 10 µM (A498): 61%
inhibition of growth at 10 µM (SK-MEL-5): 41%
inhibition of growth at 10 µM (HT-29): 19%
inhibition of growth at 10 µM (NCI/ADR-RES): 27%
inhibition of growth at 10 µM (CCRF-CEM): 49%
inhibition of growth at 10 µM (EKVX): 27%
inhibition of growth at 10 µM (UACC-257): 13%
inhibition of growth at 10 µM (MDA-MB-435): 15%
inhibition of growth at 10 µM (UO-31): 41%
inhibition of growth at 10 µM (CAKI-1): 16%
inhibition of growth at 10 µM (SN12C): 17%
inhibition of growth at 10 µM (NCI-H226): 16%
inhibition of growth at 10 µM (KM12): 21%
inhibition of growth at 10 µM (OVCAR-4): 20%
IC50 (MCF7 [7]): 16.5 µM
inhibition of growth at 10 µM (PC-3): 33%
inhibition of growth at 10 µM (HCT-116): 26%
inhibition of growth at 10 µM (NCI-H460): 11%
inhibition of growth at 10 µM (OVCAR-8): 31%
